Data: patent US11866518B2, “Bicyclic peptide ligands specific for TSLP” (BicycleTx Limited, priority 2020, dated 2024)
*1 amine or outer side, *2 acyl side, *3 side chain or, on linkers, in order; H or OH if unused. Where a SMILES comes first, the peptide text is derived from it. Bridges are numbered along the chain shown (N, C = ends). TATA = O=C(CC[*:1])N1CN(C(=O)CC[*:2])CN(C(=O)CC[*:3])C1

Target: TSLP (Homo sapiens, UniProt Q969D9)
Assay: Human TSLP Surface Plasmon Resonance (SPR) binding assay
Set-up: The resulting construct spCD33-6×HN-TEV-hTSLP(29-159)-Avi; 6xHN tag with TEV site (N, cleaved yes); made in house; host or cells: Expi293F cells
Settings: biotinylated human TSLP immobilized on streptavidin chip; 20° C.; steady-state or kinetic 1:1 fit; read-out: hTSLP SPR Kd

Chain of TSLP (Q969D9 29-159): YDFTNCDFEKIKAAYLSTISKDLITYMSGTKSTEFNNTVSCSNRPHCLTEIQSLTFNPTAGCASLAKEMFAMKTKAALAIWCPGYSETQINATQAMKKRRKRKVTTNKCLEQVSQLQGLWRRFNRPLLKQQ

SMILES | Kd [nM]
CC(=O)N[C@H]1CSCCC(=O)N2CN3CN(C2)C(=O)CCSC[C@H](NC(=O)[C@H](CC(=O)O)NC(=O)[C@H](CCC(=O)O)NC(=O)[C@H](CC(C)C)NC(=O)[C@H](Cc2c[nH]c4ccc(F)cc24)NC(=O)[C@H](CCC(N)=O)NC1=O)C(=O)N[C@@H](Cc1c[nH]c2ccc(F)cc12)C(=O)N[C@@H](CCCNC(=N)N)C(=O)NCC(=O)N[C@@H](Cc1ccc(F)cc1)C(=O)N[C@H](C(N)=O)CSCCC3=O [Example 21, Ac-(SEQ ID NO: 19)] | 9.2
CC(=O)N[C@H]1CSCCC(=O)N2CN3CN(C2)C(=O)CCSC[C@H](NC(=O)[C@H](CC(=O)O)NC(=O)[C@H](CCC(=O)O)NC(=O)[C@H](CC(C)C)NC(=O)[C@H](Cc2c[nH]c4ccccc24)NC(=O)[C@H](CCC(N)=O)NC1=O)C(=O)N[C@@H](Cc1c[nH]c2ccccc12)C(=O)N[C@@H](CCCNC(=N)N)C(=O)NCC(=O)N[C@@H](Cc1ccc(Br)cc1)C(=O)N[C@H](C(N)=O)CSCCC3=O [Example 26, Ac-(SEQ ID NO: 24)] | 11
CC(=O)N[C@H]1CSCCC(=O)N2CN3CN(C2)C(=O)CCSC[C@H](NC(=O)[C@H](CC(=O)O)NC(=O)[C@H](CCC(=O)O)NC(=O)[C@H](CC(C)C)NC(=O)[C@H](Cc2c[nH]c4ccccc24)NC(=O)[C@H](CCC(N)=O)NC1=O)C(=O)N[C@@H](Cc1c[nH]c2ccccc12)C(=O)N[C@@H](CCCNC(=N)N)C(=O)NCC(=O)N[C@@H](Cc1cc(F)c(F)c(F)c1)C(=O)N[C@H](C(N)=O)CSCCC3=O [Example 37, Ac-(SEQ ID NO: 33)] | 19
CC(=O)N[C@H]1CSCCC(=O)N2CN3CN(C2)C(=O)CCSC[C@H](NC(=O)[C@H](CC(=O)O)NC(=O)[C@H](CCC(=O)O)NC(=O)[C@H](CC(C)C)NC(=O)[C@H](Cc2c[nH]c4ccccc24)NC(=O)[C@H](CCC(N)=O)NC1=O)C(=O)N[C@@H](Cc1c[nH]c2ccccc12)C(=O)N[C@@H](CCCNC(=N)N)C(=O)NCC(=O)N[C@@H](Cc1ccc(Cl)c(F)c1)C(=O)N[C@H](C(N)=O)CSCCC3=O [Example 41, Ac-(SEQ ID NO: 37)] | 24
CC(C)C[C@@H]1NC(=O)[C@H](Cc2c[nH]c3ccccc23)NC(=O)[C@H](CCC(N)=O)NC(=O)[C@@H](N)CSCCC(=O)N2CN3CN(C2)C(=O)CCSC[C@H](NC(=O)[C@H](CC(=O)O)NC(=O)[C@H](CCC(=O)O)NC1=O)C(=O)N[C@@H](Cc1c[nH]c2ccccc12)C(=O)N[C@@H](CCCNC(=N)N)C(=O)NCC(=O)N[C@@H](Cc1ccc(F)cc1)C(=O)N[C@H](C(=O)O)CSCCC3=O [Example 48, (SEQ ID NO: 15)-COOH] | 33
CC(=O)N[C@H]1CSCCC(=O)N2CN3CN(C2)C(=O)CCSC[C@H](NC(=O)[C@H](CC(=O)O)NC(=O)[C@H](CCC(=O)O)NC(=O)[C@H](CC(C)C)NC(=O)[C@H](Cc2c[nH]c4ccccc24)NC(=O)[C@H](CCC(N)=O)NC1=O)C(=O)N[C@@H](Cc1c[nH]c2ccccc12)C(=O)N[C@@H](CCCNC(=N)N)C(=O)NCC(=O)N[C@@H](Cc1ccccc1)C(=O)N[C@H](C(=O)N[C@@H](C)C(=O)N1CCC[C@H]1C(=O)N[C@@H](CC(=O)O)C(=O)N[C@@H](CCC(=O)O)C(=O)N[C@@H](CCCNC(=N)N)C(=O)N[C@@H](CC(=O)O)C(N)=O)CSCCC3=O [Example 54, Ac-(SEQ ID NO: 38)-APDERD] | 46
CC(C)C[C@@H]1NC(=O)[C@H](Cc2c[nH]c3ccccc23)NC(=O)[C@H](CCC(N)=O)NC(=O)[C@@H](NC(=O)[C@H](C)N)CSCCC(=O)N2CN3CN(C2)C(=O)CCSC[C@H](NC(=O)[C@H](CC(=O)O)NC(=O)[C@H](CCC(=O)O)NC1=O)C(=O)N[C@@H](Cc1c[nH]c2ccccc12)C(=O)N[C@@H](CCCNC(=N)N)C(=O)NCC(=O)N[C@@H](Cc1ccccc1)C(=O)N[C@H](C(=O)N[C@@H](CC(=O)O)C(=O)N[C@@H](CC(=O)O)C(=O)N[C@@H](C)C(=O)N[C@@H](Cc1c[nH]cn1)C(=O)N[C@@H](C)C(=O)N1CCC[C@H]1C(N)=O)CSCCC3=O [Example 55, A-(SEQ ID NO: 38)-DDAHAP] | 47
CC(=O)N[C@H]1CSCCC(=O)N2CN3CN(C2)C(=O)CCSC[C@H](NC(=O)[C@H](CC(=O)O)NC(=O)[C@H](CCC(=O)O)NC(=O)[C@H](CC(C)C)NC(=O)[C@H](Cc2c[nH]c4ccccc24)NC(=O)[C@H](CCC(N)=O)NC1=O)C(=O)N[C@@H](Cc1c[nH]c2ccccc12)C(=O)N[C@@H](CCCNC(=N)N)C(=O)NCC(=O)N[C@@H](Cc1cc(F)c(Cl)c(F)c1)C(=O)N[C@H](C(N)=O)CSCCC3=O [Example 58, Ac-(SEQ ID NO: 46)] | 52
CC(C)C[C@@H]1NC(=O)[C@H](Cc2c[nH]c3ccccc23)NC(=O)[C@H](CCC(N)=O)NC(=O)[C@@H](NC(=O)[C@@H](NC(=O)[C@H](CCCNC(=N)N)NC(=O)[C@H](CCC(N)=O)NC(=O)[C@H](CCC(=O)O)NC(=O)[C@H](CC(=O)O)NC(=O)[C@@H](N)CO)[C@@H](C)O)CSCCC(=O)N2CN3CN(C2)C(=O)CCSC[C@H](NC(=O)[C@H](CC(=O)O)NC(=O)[C@H](CCC(=O)O)NC1=O)C(=O)N[C@@H](Cc1c[nH]c2ccccc12)C(=O)N[C@@H](CCCNC(=N)N)C(=O)NCC(=O)N[C@@H](Cc1ccccc1)C(=O)N[C@H](C(=O)N[C@@H](C)C(N)=O)CSCCC3=O [Example 61, SDEQRT-(SEQ ID NO: 38)-A] | 62
CC(C)C[C@@H]1NC(=O)[C@H](Cc2c[nH]c3ccccc23)NC(=O)[C@H](CCC(N)=O)NC(=O)[C@@H](NC(=O)CNC(=O)[C@@H](NC(=O)[C@H](CCC(=O)O)NC(=O)[C@H](CC(=O)O)NC(=O)[C@@H](NC(=O)[C@@H](N)CCCNC(=N)N)[C@@H](C)O)[C@@H](C)O)CSCCC(=O)N2CN3CN(C2)C(=O)CCSC[C@H](NC(=O)[C@H](CC(=O)O)NC(=O)[C@H](CCC(=O)O)NC1=O)C(=O)N[C@@H](Cc1c[nH]c2ccccc12)C(=O)N[C@@H](CCCNC(=N)N)C(=O)NCC(=O)N[C@@H](Cc1ccccc1)C(=O)N[C@H](C(=O)N[C@@H](C)C(N)=O)CSCCC3=O [Example 67, RTDETG-(SEQ ID NO: 38)-A] | 75
CC(=O)N[C@H]1CSCCC(=O)N2CN3CN(C2)C(=O)CCSC[C@H](NC(=O)[C@H](CC(=O)O)NC(=O)[C@H](CCC(=O)O)NC(=O)[C@H](CC(C)C)NC(=O)[C@H](Cc2cccc4ccccc24)NC(=O)[C@H](CCC(N)=O)NC1=O)C(=O)N[C@@H](Cc1c[nH]c2ccccc12)C(=O)N[C@@H](CCCNC(=N)N(C)C)C(=O)NCC(=O)N[C@@H](Cc1ccc(F)cc1)C(=O)N[C@H](C(=O)O)CSCCC3=O [Example 69, Ac-(SEQ ID NO: 34)-COOH] | 77
CC(C)C[C@@H]1NC(=O)[C@H](Cc2c[nH]c3ccccc23)NC(=O)[C@H](CCC(N)=O)NC(=O)[C@@H](NC(=O)[C@H](CCC(=O)O)NC(=O)[C@H](CC(C)C)NC(=O)[C@H](CC(N)=O)NC(=O)[C@H](CC(N)=O)NC(=O)[C@@H](NC(=O)[C@@H](N)CCC(=O)O)[C@@H](C)O)CSCCC(=O)N2CN3CN(C2)C(=O)CCSC[C@H](NC(=O)[C@H](CC(=O)O)NC(=O)[C@H](CCC(=O)O)NC1=O)C(=O)N[C@@H](Cc1c[nH]c2ccccc12)C(=O)N[C@@H](CCCNC(=N)N)C(=O)NCC(=O)N[C@@H](Cc1ccccc1)C(=O)N[C@H](C(=O)N[C@@H](C)C(N)=O)CSCCC3=O [Example 71, ETNNLE-(SEQ ID NO: 38)-A] | 82
CC(=O)N[C@H]1CSCCC(=O)N2CN3CN(C2)C(=O)CCSC[C@H](NC(=O)[C@H](CC(=O)O)NC(=O)[C@H](CCC(=O)O)NC(=O)[C@H](CC(C)C)NC(=O)[C@H](Cc2c[nH]c4ccccc24)NC(=O)[C@H](CCC(N)=O)NC1=O)C(=O)N[C@@H](Cc1c[nH]c2ccccc12)C(=O)N[C@@H](CCCNC(=N)N)C(=O)NCC(=O)N[C@@H](Cc1ccc(C(F)(F)F)cc1)C(=O)N[C@H](C(N)=O)CSCCC3=O [Example 77, Ac-(SEQ ID NO: 58)] | 93
CC(=O)N[C@H]1CSCCC(=O)N2CN3CN(C2)C(=O)CCSC[C@H](NC(=O)[C@H](CC(=O)O)NC(=O)[C@H](CCC(=O)O)NC(=O)[C@H](CC(C)C)NC(=O)[C@H](Cc2c[nH]c4ccccc24)NC(=O)[C@H](CCC(N)=O)NC1=O)C(=O)N[C@@H](Cc1c[nH]c2ccccc12)C(=O)N[C@@H](CCCC[N+](C)(C)C)C(=O)NCC(=O)N[C@@H](Cc1ccccc1)C(=O)N[C@H](C(N)=O)CSCCC3=O [Example 81, Ac-(SEQ ID NO: 61)] | 100
CC(C)C[C@@H]1NC(=O)[C@H](Cc2c[nH]c3ccccc23)NC(=O)[C@H](CCC(N)=O)NC(=O)[C@@H](N)CSCCC(=O)N2CN3CN(C2)C(=O)CCSC[C@H](NC(=O)[C@H](CC(=O)O)NC(=O)[C@H](CCC(=O)O)NC1=O)C(=O)N[C@@H](Cc1c[nH]c2ccccc12)C(=O)N[C@@H](CCCNC(N)=O)C(=O)NCC(=O)N[C@@H](Cc1ccccc1)C(=O)N[C@H](C(N)=O)CSCCC3=O [Example 102, (SEQ ID NO: 76)] | 170
CC(C)C[C@@H]1NC(=O)[C@H](Cc2c[nH]c3ccccc23)NC(=O)[C@H](CC(N)=O)NC(=O)[C@@H](NC(=O)[C@H](C)N)CSCCC(=O)N2CN3CN(C2)C(=O)CCSC[C@H](NC(=O)[C@H](CC(=O)O)NC(=O)[C@H](CCC(=O)O)NC1=O)C(=O)N[C@@H](Cc1c[nH]c2ccccc12)C(=O)N[C@@H](Cc1c[nH]cn1)C(=O)NCC(=O)N[C@@H](Cc1ccccc1)C(=O)N[C@H](C(=O)N[C@@H](Cc1c[nH]cn1)C(=O)N[C@@H](CCC(=O)O)C(=O)N[C@@H](CCC(=O)O)C(N)=O)CSCCC3=O [Example 125, A-(SEQ ID NO: 89)-HEE] (H-ACNWLEDCWHGFCHEE-NH2; linker 2-8-13 via TATA) | 300
CC(C)C[C@@H]1NC(=O)[C@H](Cc2c[nH]c3ccccc23)NC(=O)[C@H](CCC(N)=O)NC(=O)[C@@H](N)CSCCC(=O)N2CN3CN(C2)C(=O)CCSC[C@H](NC(=O)[C@H](CC(=O)O)NC(=O)[C@H](CCC(=O)O)NC1=O)C(=O)N[C@@H](Cc1c[nH]c2ccccc12)C(=O)N[C@@H](CCCNC(=N)N)C(=O)NCC(=O)N[C@@H](Cc1ccccc1)C(=O)N[C@H](C(=O)N[C@@H](CC(=O)O)C(=O)N[C@H](C(=O)N[C@@H](CO)C(=O)N[C@H](C(=O)N[C@@H](Cc1c[nH]cn1)C(=O)N[C@@H](CO)C(N)=O)[C@@H](C)O)[C@@H](C)O)CSCCC3=O [Example 128, (SEQ ID NO: 38)-DTSTHS] (H-CQWLEDCWRGFCDTSTHS-NH2; linker 1-7-12 via TATA) | 380
